Patent US20200247800A1, “SUBSTITUTED BICYCLIC HETEROCYCLIC COMPOUNDS AS NADPH OXIDASE INHIBITORS” (Glenmark Pharmaceuticals S.A., priority 2017, published 2020)
Structures can show the parent of a compound that is named as a salt.

Target: T1, human NOX4 (Homo sapiens, UniProt Q9NPH5)
T1 construct: expressed in transfected cells; membrane fraction used
T1 sequence (Q9NPH5 1-578): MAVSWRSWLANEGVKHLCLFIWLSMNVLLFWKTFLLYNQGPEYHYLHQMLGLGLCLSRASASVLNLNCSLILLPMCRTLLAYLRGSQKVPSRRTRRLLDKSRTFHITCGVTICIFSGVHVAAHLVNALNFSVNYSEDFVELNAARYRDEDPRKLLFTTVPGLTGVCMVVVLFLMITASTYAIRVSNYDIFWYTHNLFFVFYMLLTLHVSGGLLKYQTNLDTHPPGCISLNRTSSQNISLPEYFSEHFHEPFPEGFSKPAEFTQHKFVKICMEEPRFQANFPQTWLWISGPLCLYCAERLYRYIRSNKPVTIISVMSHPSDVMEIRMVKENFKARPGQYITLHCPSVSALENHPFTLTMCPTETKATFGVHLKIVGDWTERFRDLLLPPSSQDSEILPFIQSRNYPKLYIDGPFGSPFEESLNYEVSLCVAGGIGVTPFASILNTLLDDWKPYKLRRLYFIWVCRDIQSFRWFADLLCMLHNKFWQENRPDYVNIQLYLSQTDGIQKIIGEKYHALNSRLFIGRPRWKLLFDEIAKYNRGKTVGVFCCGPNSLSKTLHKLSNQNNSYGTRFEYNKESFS
T1 sequence (P13498 1-195 partner): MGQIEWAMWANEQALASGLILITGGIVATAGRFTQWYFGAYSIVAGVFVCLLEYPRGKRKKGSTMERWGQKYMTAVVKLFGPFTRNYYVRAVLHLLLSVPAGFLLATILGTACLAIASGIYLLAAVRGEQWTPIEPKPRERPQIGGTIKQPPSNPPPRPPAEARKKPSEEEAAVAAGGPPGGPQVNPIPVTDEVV
Assay: Cell free membrane based in vitro NOX4 assay: H2O2 production by membranes expressing human NOX4, measured with Amplex Red
Format: biochemical
Settings: for inhibition at 1 µM: 1.0 μM compound, read-out: Percentage inhibition at 1.0 μM; for inhibition at 10 µM: 10.0 μM compound, read-out: Percentage inhibition at 10.0 μM; for IC50: class symbols
Outline: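 Membranes from HEK cells stably overexpressing human NOX4 were preincubated 20 min with inhibitor in pH 7.4 HEPES buffer containing HRP and Amplex Red, then NADPH was added. H2O2 was followed for 10 min by fluorescence (ex 544/em 590 nm). IC50 from nonlinear regression of % maximal uninhibited response.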

Row | Structure (SMILES) | inhibition at 1 µM [%] | inhibition at 10 µM [%] | IC50 [nM]
1 | Cn1nc(C2CCN(S(C)(=O)=O)CC2)c2c(=O)c(O)c(-c3c(F)cccc3F)[nH]c21 [Example 185, 6-(2,6-Difluorophenyl)-5-hydroxy-1-methyl-3-(1-(methylsulfonyl)piperidin-4-yl)-1H-pyrazolo[3,4-b]pyridin-4(7H)-one] | 80.1 | 78.2 | 50 to 100
2 | CCn1nc(C)c2c(=O)c(O)c(-c3ccc(OCCOC)cc3F)[nH]c21 [Example 120, 1-Ethyl-6-[2-fluoro-4-(2-methoxyethoxy)phenyl]-5-hydroxy-3-methyl-1,7-dihydro-4H-pyrazolo[3,4-b]pyridin-4-one] | 64.8 | – | > 150
3 | CCc1nn(C2CC2)c2[nH]c(-c3c(F)cccc3F)c(O)c(=O)c12 [Example 140, 1-Cyclopropyl-6-(2,6-difluorophenyl)-3-ethyl-5-hydroxy-1H-pyrazolo[3,4-b]pyridin-4(7H)-one] | 100 | 100 | 50 to 100
4 | CCc1nn(CCn2cccn2)c2[nH]c(-c3ccccc3Cl)c(O)c(=O)c12 [Example 157, 1-(2-(1H-pyrazol-1-yl)ethyl)-6-(2-chlorophenyl)-3-ethyl-5-hydroxy-1H-pyrazolo[3,4-b]pyridin-4(7H)-one] | 95.2 | 98.6 | 50 to 100
5 | CCc1nn(C)c2[nH]c(-c3ccc(F)cc3F)c(O)c(=O)c12 [Example 161, 6-(2,4-Difluorophenyl)-3-ethyl-5-hydroxy-1-methyl-1H-pyrazolo[3,4-b]pyridin-4(7H)-one] | 71.6 | – | > 150
6 | Cn1nc(C(F)(F)F)c2c(=O)c(O)c(-c3ccc(Cl)cc3F)[nH]c21 [Example 52, 6-(4-Chloro-2-fluorophenyl)-5-hydroxy-1-methyl-3-(trifluoromethyl)-1,7-dihydro-4H-pyrazolo[3,4-b]pyridin-4-one] | 75.8 | 94.9 | > 150
7 | Cc1cc2c(=O)c(O)c(-c3ccc(F)c(C(F)(F)F)c3)[nH]c2s1 [Example 61, 6-[4-Fluoro-3-(trifluoromethyl)phenyl]-5-hydroxy-2-methylthieno[2,3-b]pyridin-4(7H)-one] | 100 | 100 | 50 to 100
8 | Cc1nn(-c2ccc(F)cc2Cl)c2[nH]c(-c3c(F)cccc3F)c(O)c(=O)c12 [Example 139, 1-(2-Chloro-4-fluorophenyl)-6-(2,6-difluorophenyl)-5-hydroxy-3-methyl-1H-pyrazolo[3,4-b]pyridin-4(7H)-one] | 99 | 100 | 50 to 100
9 | Cn1nc(N2CCOCC2)c2c(=O)c(O)c(-c3c(F)cccc3F)[nH]c21 [Example 117, 6-(2,6-Difluorophenyl)-5-hydroxy-1-methyl-3-morpholino-1H-pyrazolo[3,4-b]pyridin-4(7H)-one] | 6.79 | 15.6 | –
10 | Cc1nn(CCN2CCN(C)CC2)c2[nH]c(-c3ccccc3Cl)c(O)c(=O)c12 [Example 243, 6-(2-Chlorophenyl)-5-hydroxy-3-methyl-1-(2-(4-methylpiperazin-1-yl)ethyl)-1H-pyrazolo[3,4-b]pyridin-4(7H)-one fumarate] | – | – | > 150
11 | CCn1nc(C)c2c(=O)c(O)c(-c3ccc(NS(C)(=O)=O)cc3F)[nH]c21 [Example 235, N-[4-(1-ethyl-5-hydroxy-3-methyl-4-oxo-4,7-dihydro-1H-pyrazolo[3,4-b]pyridin-6-yl)-3-fluorophenyl]methanesulfonamide] | 72.9 | – | > 150
12 | COCCn1nc(C)c2c(=O)c(O)c(-c3c(F)cccc3F)[nH]c21 [Example 90, 6-(2,6-Difluorophenyl)-5-hydroxy-1-(2-methoxyethyl)-3-methyl-1H-pyrazolo[3,4-b]pyridin-4(7H)-one] | 100 | 100 | 50 to 100
13 | CC(C)N1CCN(Cc2nn(C)c3[nH]c(-c4c(F)cccc4F)c(O)c(=O)c23)C[C@@H]1C [Example 222, (S)-6-(2,6-Difluorophenyl)-5-hydroxy-3-((4-isopropyl-3-methylpiperazin-1-yl)methyl)-1-methyl-1H-pyrazolo[3,4-b]pyridin-4(7H)-one] | 86.2 | 92.7 | > 150
14 | Cn1nc(C(F)F)c2c(=O)c(O)c(-c3ccccc3Cl)[nH]c21 [Example 85, 6-(2-Chlorophenyl)-3-(difluoromethyl)-5-hydroxy-1-methyl-1H-pyrazolo[3,4-b]pyridin-4(7H)-one] | 72.5 | 88 | > 150
15 | Cn1nc(CO)c2c(=O)c(O)c(-c3c(F)cccc3F)[nH]c21 [Example 188, 6-(2,6-Difluorophenyl)-5-hydroxy-3-(hydroxymethyl)-1-methyl-1H-pyrazolo[3,4-b]pyridin-4(7H)-one] | 96.5 | 100 | 100 to 150
16 | CCn1nc2c(=O)c(O)c(-c3ccccc3Cl)oc2c1C [Example 229, 5-(2-Chlorophenyl)-2-ethyl-6-hydroxy-3-methylpyrano[3,2-c]pyrazol-7(2H)-one] | 4.45 | 5.81 | –
17 | O=c1c(O)c(-c2c(F)cccc2F)[nH]c2c1c(C1CCOCC1)nn2C1CC1 [Example 190, 1-Cyclopropyl-6-(2,6-difluorophenyl)-5-hydroxy-3-(tetrahydro-2H-pyran-4-yl)-1H-pyrazolo[3,4-b]pyridin-4(7H)-one] | 93.1 | 100 | < 50
18 | Cc1nn(C)c2oc(-c3ccccc3Cl)c(O)c(=O)c12 [Example 230, 6-(2-chlorophenyl)-5-hydroxy-1,3-dimethylpyrano[2,3-c]pyrazol-4(1H)-one] | 3.28 | 5.83 | –
19 | CCn1nc(C)c2c(=O)c(O)c(-c3ccccc3F)[nH]c21 [Example 107, 1-Ethyl-6-(2-fluorophenyl)-5-hydroxy-3-methyl-1,7-dihydro-4H-pyrazolo[3,4-b]pyridin-4-one] | 70.8 | 61.2 | > 150
20 | COc1ccc(-c2[nH]c3c(c(C)nn3-c3ccc(F)c(F)c3)c(=O)c2O)c(F)c1 [Example 39, 1-(3,4-Difluorophenyl)-6-(2-fluoro-4-methoxyphenyl)-5-hydroxy-3-methyl-1,7-dihydro-4H-pyrazolo[3,4-b]pyridin-4-one] | 85 | 87.3 | 100 to 150
21 | Cc1nn(C)c2[nH]c(-c3ccccc3Cl)c(O)c(=O)c12 [Example 1, 6-(2-Chlorophenyl)-5-hydroxy-1,3-dimethyl-1,7-dihydro-4H-pyrazolo[3,4-b]pyridin-4-one] | 94.1 | 89.7 | < 50
22 | CCc1nn(CCN2CCN(CC)CC2)c2[nH]c(-c3c(F)cccc3F)c(O)c(=O)c12 [Example 172, 6-(2,6-Difluorophenyl)-3-ethyl-1-(2-(4-ethylpiperazin-1-yl)ethyl)-5-hydroxy-1H-pyrazolo[3,4-b]pyridin-4(7H)-one] | 80.9 | – | > 150
23 | Cc1nn(C(C)C)c2[nH]c(-c3c(F)cccc3F)c(O)c(=O)c12 [Example 74, 6-(2,6-Difluorophenyl)-5-hydroxy-1-isopropyl-3-methyl-1H-pyrazolo[3,4-b]pyridin-4(7H)-one] | 91.1 | 90.3 | 50 to 100
24 | Cc1nn(C2CCC(F)(F)CC2)c2[nH]c(-c3c(F)cccc3F)c(O)c(=O)c12 [Example 137, 1-(4,4-Difluorocyclohexyl)-6-(2,6-difluorophenyl)-5-hydroxy-3-methyl-1H-pyrazolo[3,4-b]pyridin-4(7H)-one] | 89.5 | 86.3 | 50 to 100
25 | Cc1nn(CCN2CCCC2)c2[nH]c(-c3ccccc3Cl)c(O)c(=O)c12 [Example 151, 6-(2-Chlorophenyl)-5-hydroxy-3-methyl-1-(2-(pyrrolidin-1-yl)ethyl)-1H-pyrazolo[3,4-b]pyridin-4(7H)-one] | 81.1 | 76.2 | > 150
26 | Cc1noc2[nH]c(-c3ccccc3Cl)c(O)c(=O)c12 [Example 64, 6-(2-Chlorophenyl)-5-hydroxy-3-methyl[1,2]oxazolo[5,4-b]pyridin-4(7H)-one] | 68.8 | 100 | > 150
27 | Cn1nc2[nH]c(-c3ccccc3Cl)c(O)c(=O)c2c1-c1ccc(F)cc1 [Example 58, 6-(2-Chlorophenyl)-3-(4-fluorophenyl)-5-hydroxy-2-methyl-2,7-dihydro-4H-pyrazolo[3,4-b]pyridin-4-one] | 36.7 | 51.2 | –
